According to patent US5196421A, “Excitatory amino acid receptor antagonists in methods for the use thereof” (priority 1992, dated 1993):

Experiments:
[1] = system: AMPA receptor ([^3 H]AMPA binding, crude membranes of rat forebrain); experiment: [^3 H]-AMPA displacement, EAA receptor binding; conditions: 10 μM test compound, [^3 H]AMPA 5 nM, 100 mM KSCN
Method: (§1) Referring to Table IV, there are shown the results obtained in testing a representative number of these compounds. In Table IV, the activity of the compounds for EAA receptor binding is indicated. Compounds were evaluated for their ability to displace [^3 H]-CGS191755, [^3 H]-glycine, [^3 H]-AMPA and [^3 H]-kainate at a screening concentration of 10 μM.
(§2) Binding assays, except for glycine binding, were performed in accordance with the methods described in Schoepp et al., J. Pharmacology and Exp. Therap., Vol. 255, No. 3, pp. 1301-1308 (1990). For all binding assays, male Sprague-Dawley rats (150-175 g) were used. Displacement of the specific binding of ^3 H]CGS19755 (10 nM) to Triton-X-treated synaptosomal membranes of rat forebrain was used to determine NMDA receptor affinity. Nonspecific binding was determined using 10 μM L-glutamate. Samples were incubated in an ice bath for 30 minutes, and bound ligand was separated from the free ligand by rapid filtration through Whatman GF/B glass fiber filters.
The binding of [^3 H]AMPA (5 nM) was conducted with crude membranes of rat forebrain in the presence of 100 mM KSCN, as described by Nielsen et al., "Studies on Receptor-Active Conformations of Excitatory Amino Acid Agonists and Antagonists," Eur. J. Med. Chem. Chim. Ther. 21:433-437 (1986). Nonspecific binding was determined with 10 μM nonlabeled AMPA.

[2] = molecular target: T1, Strychnine-Insensitive [^3 H]Glycine Binding Sites, washed membranes of rat brain cortex (Rattus norvegicus, UniProt P35439); experiment: biochemical; conditions: 1 h, read-out: [^3 H]-Glycine Binding % DSPL10 @ 10 μM, 10 μM test compound, 60 minutes on ice
T1 construct: washed membranes of rat brain cortex; from tissue; host or cells: brain cortex membranes, male Sprague-Dawley rats (150-175 g)
Method: as §1, §2
The compounds were examined for their ability to displace [^3 H]-glycine from washed membranes of rat brain cortex according to the methods of Shinohara et al., "Ontogeny of Strychnine-Insensitive [^3 H]Glycine Binding Sites in Rat Forebrain", Neurosci. Lett. 105 (1990) 307-311. In each assay, […] [^3 H]-glycine and 25 μg tissue were incubated with test compounds (10 μM in a total volume of 0.5 ml for 60 minutes on ice; incubations were terminated by centrifugation. Non-specific binding was defined as that remaining in the presence of 10 μM D-serine.

[3] = system: kainate (KA) receptor ([^3 H]Kainate binding, washed synaptosomal membranes from the rat forebrain); experiment: [^3 H]-kainate displacement, EAA receptor binding; conditions: 10 μM test compound, [^3 H]Kainate 5 nM, pH 7.4, 30 min
Method: as §1, §2
[^3 H]Kainate binding was performed using washed synaptosomal membranes from the rat forebrain, prepared as described by Simon et al., "Binding of [^3 H]Kainic Acid, an Analogue of L-Glutamate, to Brain Membranes," J. Neurochem. 26:141-147 (1976). [^3 H]Kainate (5 nM) was added to 50 mM Tris-HCl buffer (pH 7.4 at 4°) containing 200-300 μg/ml of tissue protein. Samples were incubated for 30 minutes in an ice bath and then rapidly filtered using a Brandel cell harvester and Whatman GF/C filters. Filters were washed twice with 3 ml of cold buffer. Nonspecific binding was determined using 100 μM nonlabeled kainate.

O=c1[nH]c2c(Cl)cc(Cl)cc2c2ccnn12 [Compound 33, 7,9-dichloropyrazolo[1,5-c]quinazolin-5(6H)-one]
AMPA % DSPL @ 10 μM [1]: 5.1% | inhibition at 10 µM [2]: -3% | KA % DSPL @ 10 μM [3]: 7.4%

Cc1cc2c3ccccc3[nH]c(=O)n2n1 [Compound 34, 2-methylpyrazolo[1,5-c]quinazolin-5(6H)-one]
AMPA % DSPL @ 10 μM [1]: 0.2% | inhibition at 10 µM [2]: 13% | KA % DSPL @ 10 μM [3]: 0.9%

O=c1[nH]c2cc(C(F)(F)F)ccc2c2ccnn12 [Compound 35, 8-trifluoromethylpyrazolo[1,5-c]quinazolin-5(6H)-one]
AMPA % DSPL @ 10 μM [1]: 54.8% | inhibition at 10 µM [2]: 51% | KA % DSPL @ 10 μM [3]: 8.4%

Clc1cc2ncc3nccn3c2cc1Cl [Compound 36, 7,8-dichloroimidazo[1,2-a]quinoxaline]
AMPA % DSPL @ 10 μM [1]: 53.3% | inhibition at 10 µM [2]: 88% | KA % DSPL @ 10 μM [3]: 23.6%

O=c1[nH]c2ccc(Cl)cc2c2nc3ccccc3n12 [Compound 38, chlorobenzimidazo[1,2-a]quinazolin-4(5H)-one]
AMPA % DSPL @ 10 μM [1]: 4.1% | inhibition at 10 µM [2]: 3% | KA % DSPL @ 10 μM [3]: -0.8%
